Earlier results, collected in patent US20260207540A1 (priority 2020, published 2026).

Key:
[1] = 1 microgram/kg IV, canines
[2] = inhalation challenge 0.25 to 10.0 mg/mL
[3] = tested on: SRCR (scavenger receptor cysteine-rich) domain; details: proteins with calcium binding sites similar to host protease TMPRSS2

Row | Compound | EDTA-induced bronchoconstriction [1] | Rubella virus infection (Rubella virus; in the "test tube") | Rubella fusion (Rubella virus; in vitro, addition of the calcium chelator) | bronchoconstriction [2] | calcium-dependent binding [3]
1 | albuterol sulfate | significantly attenuated | – | – | – | –
2 | O=C(O)CN(CCN(CC(=O)O)CC(=O)O)CC(=O)O [EDTA, ethylenediamine tetraacetic acid] | – | prevented | completely abrogated | concentration-dependent bronchoconstriction | disrupted
